Measured values: patent US20250297134A1, “HIGH RATE BULK OXIDE CMP COMPOSITION” (ENTEGRIS, INC., priority 2024, published 2025)

assay: Aqueous solubility of hydroxamic acid compounds; format: physicochemical; settings: deionized water, pH 5.5, stirred overnight, filtered, 1H NMR quantification
Protocol: The aqueous solubility was measured and the partition coefficient was computed for nineteen hydroxamic acid compounds. To measure the aqueous solubility, a supersaturated solution of each hydroxamic acid compound was prepared in deionized water. The pH was adjusted to 5.5 using nitric acid and the supersaturated solution was stirred overnight. Excess solids were removed via filtration and the hydroxamic acid compound in solution was quantified using 1H NMR with a t-BuOH standard. […] It was not possible to achieve super saturation for the 2-furohydroxamic acid compound. […] The partition coefficients were computed using the procedure described in Wildman, Scott A. and Crippen, Gordon M., Prediction of Physicochemical Parameters by Atomic Contributions, J. Chem. Inf. Comput. Sci. 1999, 39, 5, 868-873. Briefly, an atom type classification system was used for an atom-based calculation of the partition coefficient (log P) and the molar refractivity (MR).

| Aqueous Solubility [%] | Compound |
| --- | --- |
| 3.6 | O=C(NO)c1ccccc1 [Benzohydroxamic acid] |
| 4.8 | CCCCCC(=O)NO [Hexanohydroxamic acid] |
| 0.4 | COc1ccc(C(=O)NO)cc1 [4-Methoxybenzohydroxamic acid] |
| 0.6 | O=C(C=Cc1ccccc1)NO [Cinnamohydroxamic acid] |
| 1.1 | COc1ccccc1C(=O)NO [2-Methoxybenzohydroxamic acid] |
| 0.5 | Cc1ccc(C(=O)NO)cc1 [4-Methylbenzohydroxamic acid] |
| 1.0 | 2-Fluoro hydroxamic acid |
| 1.3 | 3-Fluoro hydroxamic acid |
| 0.2 | CCCCCCCC(=O)NO [Octanohydroxamic acid] |
| 1.0 | 4-Fluoro hydroxamic acid |
| 1.6 | O=C(CCCc1ccccc1)NO [4-Phenylbutyrl hydroxamic acid] |
| >17.8 | O=C(NO)c1ccco1 [2-furohydroxamic acid] |
| 0.5 | N#Cc1ccc(C(=O)NO)cc1 [4-Cyano-N-hydroxybenzamide] |
| 1.5 | O=C(Cc1ccccc1)NO [N-hydroxy-2-phenyl-acetamide] |
| 1.8 | O=C(COCc1ccccc1)NO [Benzyloxyacetohydroxamic acid] |
| 0.2 | Cc1ccc(CCCC(=O)NO)cc1 [4-(p-tolyl)butyrohydroxamic acid] |
| 3.0 | O=C(NO)c1ccccn1 [Picolinichydroxamic acid] |
| 3.3 | Cc1ccccc1C(=O)NO [2-Methylbenzohydroxamic acid] |
